From US11207291B2, “Antimicrobial compositions comprising cannabinoids and methods of using the same” (Graphium Biosciences, Inc., priority 2017, dated 2021)
Converted amounts (≈) assume the structure as drawn. Like-named read-outs stand apart in the source and are kept apart here.

Columns and labels:
B. bifidum MMX 3965 = test: MIC/MBC testing (Example 5); type: cell-based
[1] = tested on: Enterococcus faecalis (VSE); test: Broth microdilution MIC, aerobic bacteria (Example 4); type: cell-based; conditions: ATCC29212
Candida parapsilosis = test: Broth microdilution MIC, fungi (Example 4); type: cell-based; conditions: Lodderomyces parapsilosis
Lactobacillus crispatus = test: Broth microdilution MIC, anaerobic bacteria (Example 1); type: cell-based; conditions: Lactobacillus crispatus
[2] = tested on: Klebsiella pneumoniae (KPC-2); type: cell-based; conditions: Example 1 summary of findings; Klebsiella
[3] = tested on: Enterococcus faecalis (VRE); test: microbe, parasite or virus in culture; type: cell-based
Acinetobacter baumannii = test: Broth microdilution MIC, aerobic bacteria (Example 4); type: cell-based
Anaerobic Bacteria = test: Broth microdilution MIC, text summary (Example 1); type: cell-based
Bifidobacterium bifidum = test: Broth microdilution MIC, anaerobic bacteria (Example 4); type: cell-based; conditions: isolate MMX 3965
E. coli ATCC 25922 = test: MIC/MBC testing (Example 5); type: cell-based; conditions: Escherichia coli, ATCC25922
[4] = Compound precipitation in uninoculated solubility controls (Example 1); type: physicochemical; set-up: key to precipitation observed (type): NA: not applicable (no precipitation observed); TRP: trace precipitate; DCP: distinct precipitate
Method: Plates were stacked 3-4 high, covered with a lid on the top plate, placed in plastic bags, and incubated at 35° C. for approximately 16 to 20 hr (aerobes), 20 to 24 hr (Streptococcus), and 24 and 48 hr (fungi). Anaerobe plates were stacked, covered with a lid on the top plate, placed in a BD GasPak EZ Anaerobe Container System and incubated at 35° C. for 48 hr. Following incubation, the microplates were removed from the incubator and viewed from the bottom using a plate viewer. […] The MIC was read and recorded as the lowest concentration of drug that inhibited visible growth of the organism.

Lactobacillus jensenii [5] = test: Broth microdilution MIC, anaerobic bacteria (Example 1); type: cell-based; conditions: Lactobacillus jensenii
E. faecalis ATCC 29212 = test: MIC/MBC testing (Example 5); type: cell-based
[6] = tested on: Staphylococcus aureus (MRSA); test: microbe, parasite or virus in culture; type: cell-based
S. pyogenes MMX 404 = test: MIC/MBC testing (Example 5); type: cell-based
S. aureus ATCC 29213 = test: MIC/MBC testing (Example 5); type: cell-based
B. longum MMX 3968 = test: MIC/MBC testing (Example 5); type: cell-based
S. aureus MMX 757 = test: MIC/MBC testing (Example 5); type: cell-based
Clostridium difficile = test: Broth microdilution MIC, anaerobic bacteria (Example 1); type: cell-based; conditions: Clostridioides difficile
gram-positive aerobes = test: Broth microdilution MIC, text summary (Example 1); type: cell-based
[7] = tested on: Enterococcus faecalis (VRE); test: microbe, parasite or virus in culture; type: cell-based; conditions: Enterococcus faecalis, VRE
[8] = tested on: evaluated yeast and fungal isolates; test: Broth microdilution MIC, text summary (Example 1); type: cell-based
Lactobacillus jensenii [9] = test: Broth microdilution MIC, anaerobic bacteria (Example 4); type: cell-based; conditions: isolate MMX 4149
Aspergillus fumigatus = test: Broth microdilution MIC, fungi (Example 4); type: cell-based; conditions: Aspergillus fumigatus
E. faecalis MMX 848 = test: MIC/MBC testing (Example 5); type: cell-based
[10] = Analysis of intestinal contents, plasma and brains after oral CBD or CBD-glycosides (Example 3); type: in vivo; conditions: mouse, oral gavage; 2 hours; data not shown
Method: In order to investigate the metabolism and decoupling of CBD-glycosides in the large intestine, an aqueous solution of a mixture of CBD-glycosides was administered to a mouse by oral gavage. As a control, a solution of CBD in cremophor, ethanol, and saline was administered to a second mouse. The animals were each sacrificed at 2 hours. Following termination and tissue harvest, the intestinal contents were then extracted and analyzed by C18 reverse phase HPLC. The mice employed in this example were eight week old male Swiss mice fasted for 12 hours prior to administration of the solutions.
The resulting extracts were analyzed by LCMS performed using a Shimadzu LC-MS 2010 EV. Electrospray ionization (ESI) was performed in negative mode. The column was a Silia Chrom XDB C18 5 um, 150 A, 4.6×50 mm. The method was 12 min 5 to 95 H2O:ACN. Acetic acid and formic acid were used as sample additives during analysis, and the injection volume was 20 μl.

Bacteroides fragilis = test: Broth microdilution MIC, anaerobic bacteria (Example 1); type: cell-based; conditions: Bacteroides fragilis
Pseudomonas aeruginosa = test: Broth microdilution MIC, aerobic bacteria (Example 1); type: cell-based
[11] = Bifidobacterium bifidum, MMX3965
[12] = ratios of 1-4 are indicative of bactericidal activity
[13] = Example 1 summary of findings, read-out: inhibits the growth (IC50 values)
[14] = Enterococcus faecalis, ATCC29212
[15] = Staphylococcus aureus, ATCC29213
[16] = Bifidobacterium longum, MMX3968
[17] = read-out: inhibits the growth (IC50)

In the case of `C=C(C)[C@@H]1CCC(C)=C[C@H]1c1c(O)cc(CCCCC)cc1O` [CBD, cannabidiol], the MBC (B. bifidum MMX 3965; [11]) is reported as 32 µg/mL (≈ 102 µM), the MIC (B. bifidum MMX 3965; [11]) is reported as 16 µg/mL (≈ 50.9 µM) and the “MBC:MIC” value (B. bifidum MMX 3965; [12]) is reported as 2. For the same molecule, the MIC [1] was 2 µg/mL (≈ 6.36 µM), the MIC (Candida parapsilosis; ATCC22019, 24 h, read-out: MIC at 24 hr) was > 128 µg/mL and the MIC (Candida parapsilosis; ATCC22019, Example 4, 48 hr, isolate MMX 2323 (ATCC 22019), read-out: MIC at 48 hr) was > 128 µg/mL. The MIC (Lactobacillus crispatus; Example 1, isolate MMX 4147, read-out: MIC) was 2 µg/mL (≈ 6.36 µM), the IC50 (Lactobacillus crispatus; [13]) was 2 µg/mL (≈ 6.36 µM) and the “effect on the gram-negative pathogen” value [2] was “did not have any effect”. The MIC [3] was 2 µg/mL (≈ 6.36 µM), the MIC (Acinetobacter baumannii) was > 128 µg/mL and the “MICs (range over anaerobic bacteria)” value (Anaerobic Bacteria) was 2 to 64 µg/mL. For the same molecule, the MIC (Bifidobacterium bifidum) was 8 µg/mL (≈ 25.4 µM), the MIC (E. coli ATCC 25922) was > 256 µg/mL and the “lowest concentration at which precipitation was observed” value ([4]; MHB II) was 16 µg/mL. For the same molecule, the “precipitation observed (type)” value ([4]; MHB II) was “TRP”, the “lowest concentration at which precipitation was observed” value ([4]; MHB II with Blood) was 128 µg/mL and the “precipitation observed (type)” value ([4]; MHB II with Blood) was “TRP”. The MIC (Lactobacillus jensenii [5]; Example 1, isolate MMX 4149, read-out: MIC) was 64 µg/mL (≈ 204 µM), the IC50 (Lactobacillus jensenii [5]; [13]) was 64 µg/mL (≈ 204 µM) and the MBC (E. faecalis ATCC 29212; [14]) was 2 µg/mL (≈ 6.36 µM). The MIC (E. faecalis ATCC 29212; [14]) was 2 µg/mL (≈ 6.36 µM), the “MBC:MIC” value (E. faecalis ATCC 29212; [12]) was 1 and the MIC [6] was 2 µg/mL (≈ 6.36 µM). For the same molecule, the MBC (S. pyogenes MMX 404; Streptococcus pyogenes, MMX404) was 32 µg/mL (≈ 102 µM), the MIC (S. pyogenes MMX 404; Streptococcus pyogenes, MMX404) was 32 µg/mL (≈ 102 µM) and the “MBC:MIC” value (S. pyogenes MMX 404; [12]) was 1. For the same molecule, the MBC (S. aureus ATCC 29213; [15]) was 2 µg/mL (≈ 6.36 µM), the MIC (S. aureus ATCC 29213; [15]) was 1 µg/mL (≈ 3.18 µM) and the “MBC:MIC” value (S. aureus ATCC 29213; [12]) was 2. The MBC (B. longum MMX 3968; [16]) was 64 µg/mL (≈ 204 µM), the MIC (B. longum MMX 3968; [16]) was 16 µg/mL (≈ 50.9 µM) and the “MBC:MIC” value (B. longum MMX 3968; [12]) was 4. For the same molecule, the MBC (S. aureus MMX 757; Staphylococcus aureus, MMX757) was 1 µg/mL (≈ 3.18 µM), the MIC (S. aureus MMX 757; Staphylococcus aureus, MMX757) was 1 µg/mL (≈ 3.18 µM) and the “MBC:MIC” value (S. aureus MMX 757; [12]) was 1. The MIC (Clostridium difficile; ATCC00057, Example 1, isolate MMX 4381 (ATCC 00057)) was 32 µg/mL (≈ 102 µM), the MIC (Clostridium difficile; Example 1, isolate MMX 8330, read-out: MIC) was 32 µg/mL (≈ 102 µM) and the MIC (Clostridium difficile; Example 1, isolate MMX 8333, read-out: MIC) was 32 µg/mL (≈ 102 µM). The IC50 (Clostridium difficile; [17]) was 32 µg/mL (≈ 102 µM), the “activity against gram-positive aerobic bacteria” value (gram-positive aerobes) was “active” and the MIC [7] was 2 µg/mL (≈ 6.36 µM). The IC50 [7, 17] was 2 µg/mL (≈ 6.36 µM), the “activity against yeast and fungal isolates” value [8] was “Neither the cannabinoid prodrugs or CBD were active” and the MIC (Lactobacillus jensenii [9]) was > 128 µg/mL. For the same molecule, the MIC (Aspergillus fumigatus; 48 h, read-out: MIC at 48 hr) was > 128 µg/mL, the MIC (Aspergillus fumigatus; Example 4, 24 hr, isolate MMX 5280 (MYA-3626), read-out: MIC at 24 hr) was > 128 µg/mL and the MBC (E. faecalis MMX 848; Enterococcus faecalis, MMX848) was 2 µg/mL (≈ 6.36 µM). The MIC (E. faecalis MMX 848; Enterococcus faecalis, MMX848) was 1 µg/mL (≈ 3.18 µM), the “MBC:MIC” value (E. faecalis MMX 848; [12]) was 2 and the “presence of CBD in plasma and brains (HPLC)” value [10] was “CBD was only present in the control animal that received CBD aglycone”. For the same molecule, the MIC (Bacteroides fragilis; ATCC5285) was 32 µg/mL (≈ 102 µM), the IC50 (Bacteroides fragilis; Example 1 summary of findings, read-out: inhibits the growth (IC50)) was 32 µg/mL (≈ 102 µM) and the “effect on the gram-negative pathogen” value (Pseudomonas aeruginosa; Example 1 summary of findings, Pseudomonas) was “did not have any effect”. The MIC (Pseudomonas aeruginosa; Pseudomonas aeruginosa, Example 1, isolate MMX 1380, read-out: MIC) was > 256 µg/mL.
